Test [1] deals with T1, PI3Kdelta (Homo sapiens, UniProt O00329).
T1 construct: purchased Upstate; Millipore 14-604
As to the kind of experiment: HTRF PI3K biochemical assay, delta isoform. The settings on record: 0.3 nM enzyme, 100 uM ATP, 5 uM PIP2, form screened (Neutral or TFA salt) given per compound. Put shortly: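 PI3Kδ at 0.3 nM with 100 uM ATP and 5 uM PIP2, 10-point 3-fold dilutions, 15 min enzyme–compound pre-incubation, then 1 h reaction at room temperature. PIP3 formation detected by HTRF displacement of biotin-PIP3 from GST-GRP1-PH (665/620 nm ratio). IC50 corrected using a PIP3 standard curve.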

The target in test [2] is T2, PI3Kalpha (Homo sapiens, UniProt P42336).
T2 construct: purchased Upstate; Millipore 14-602
T2 sequence (P42336 whole entry): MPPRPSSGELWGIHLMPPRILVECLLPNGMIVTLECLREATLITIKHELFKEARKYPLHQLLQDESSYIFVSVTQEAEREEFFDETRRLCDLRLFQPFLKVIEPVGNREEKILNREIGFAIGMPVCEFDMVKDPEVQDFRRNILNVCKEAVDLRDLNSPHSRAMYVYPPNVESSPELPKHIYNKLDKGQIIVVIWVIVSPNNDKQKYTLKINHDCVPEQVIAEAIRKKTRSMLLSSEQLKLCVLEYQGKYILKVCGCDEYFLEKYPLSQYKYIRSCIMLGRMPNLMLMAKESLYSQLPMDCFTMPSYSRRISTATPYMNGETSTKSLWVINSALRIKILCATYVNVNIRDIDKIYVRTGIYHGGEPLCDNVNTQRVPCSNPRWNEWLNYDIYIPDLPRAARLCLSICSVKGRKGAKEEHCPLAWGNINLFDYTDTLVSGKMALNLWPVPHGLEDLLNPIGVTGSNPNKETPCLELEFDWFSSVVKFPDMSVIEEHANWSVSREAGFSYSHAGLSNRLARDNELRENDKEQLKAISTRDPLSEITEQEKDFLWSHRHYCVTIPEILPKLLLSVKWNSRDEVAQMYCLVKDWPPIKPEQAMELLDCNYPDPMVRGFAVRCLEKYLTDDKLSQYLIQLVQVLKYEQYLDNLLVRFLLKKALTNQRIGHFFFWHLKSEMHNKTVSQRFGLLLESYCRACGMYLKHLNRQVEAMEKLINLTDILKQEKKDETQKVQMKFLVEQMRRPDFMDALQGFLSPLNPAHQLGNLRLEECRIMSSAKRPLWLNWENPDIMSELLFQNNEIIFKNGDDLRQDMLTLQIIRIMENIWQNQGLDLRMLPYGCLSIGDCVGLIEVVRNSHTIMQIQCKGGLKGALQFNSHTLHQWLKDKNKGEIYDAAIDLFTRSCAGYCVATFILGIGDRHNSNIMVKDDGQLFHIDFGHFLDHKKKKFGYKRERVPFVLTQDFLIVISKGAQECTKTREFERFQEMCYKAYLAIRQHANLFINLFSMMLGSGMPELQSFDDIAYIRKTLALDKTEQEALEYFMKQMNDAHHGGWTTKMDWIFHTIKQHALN
T2 sequence (P27986 whole entry partner): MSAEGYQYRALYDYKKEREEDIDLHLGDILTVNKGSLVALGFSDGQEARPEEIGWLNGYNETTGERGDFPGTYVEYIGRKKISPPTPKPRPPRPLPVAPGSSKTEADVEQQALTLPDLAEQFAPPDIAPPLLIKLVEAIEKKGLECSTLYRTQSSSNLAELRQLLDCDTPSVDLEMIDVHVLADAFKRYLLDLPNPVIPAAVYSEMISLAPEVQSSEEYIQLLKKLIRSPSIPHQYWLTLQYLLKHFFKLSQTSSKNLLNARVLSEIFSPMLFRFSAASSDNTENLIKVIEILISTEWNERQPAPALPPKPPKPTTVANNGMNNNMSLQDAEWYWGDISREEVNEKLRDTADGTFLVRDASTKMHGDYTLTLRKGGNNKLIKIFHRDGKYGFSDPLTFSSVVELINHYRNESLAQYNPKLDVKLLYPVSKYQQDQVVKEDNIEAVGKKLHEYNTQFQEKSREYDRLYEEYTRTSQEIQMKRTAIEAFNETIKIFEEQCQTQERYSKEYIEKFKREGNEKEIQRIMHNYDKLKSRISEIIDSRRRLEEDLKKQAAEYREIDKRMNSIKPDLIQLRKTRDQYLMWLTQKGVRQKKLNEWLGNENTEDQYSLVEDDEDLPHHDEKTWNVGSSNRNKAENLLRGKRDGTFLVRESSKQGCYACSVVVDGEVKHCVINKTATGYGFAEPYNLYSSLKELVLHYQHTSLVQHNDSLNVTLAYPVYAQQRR
As to the kind of experiment: HTRF PI3K biochemical assay, alpha isoform (selectivity versus delta). Conditions: relative ratio PI3K-alpha IC50 value / PI3K-delta IC50 value. In outline: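 Recombinant PI3Kα (0.5 nM) pre-incubated 15 min with compound, then reacted 1 h at room temperature with 5 μM PIP2 and 100 μM ATP. After EDTA stop, PIP3 measured by HTRF displacement of biotin-PIP3 from GST-GRP1 PH domain (665/620 nm). 10-point dose response; IC50 corrected using a PIP3 standard curve.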

These results are taken from US10100064B2, “Purine inhibitors of human phosphatidylinositol 3-kinase delta” (Merck Sharp & Dohme Corp., priority 2014, dated 2018).

pIC50: −log10 of the molar value.

T1 sequence (O00329 whole entry): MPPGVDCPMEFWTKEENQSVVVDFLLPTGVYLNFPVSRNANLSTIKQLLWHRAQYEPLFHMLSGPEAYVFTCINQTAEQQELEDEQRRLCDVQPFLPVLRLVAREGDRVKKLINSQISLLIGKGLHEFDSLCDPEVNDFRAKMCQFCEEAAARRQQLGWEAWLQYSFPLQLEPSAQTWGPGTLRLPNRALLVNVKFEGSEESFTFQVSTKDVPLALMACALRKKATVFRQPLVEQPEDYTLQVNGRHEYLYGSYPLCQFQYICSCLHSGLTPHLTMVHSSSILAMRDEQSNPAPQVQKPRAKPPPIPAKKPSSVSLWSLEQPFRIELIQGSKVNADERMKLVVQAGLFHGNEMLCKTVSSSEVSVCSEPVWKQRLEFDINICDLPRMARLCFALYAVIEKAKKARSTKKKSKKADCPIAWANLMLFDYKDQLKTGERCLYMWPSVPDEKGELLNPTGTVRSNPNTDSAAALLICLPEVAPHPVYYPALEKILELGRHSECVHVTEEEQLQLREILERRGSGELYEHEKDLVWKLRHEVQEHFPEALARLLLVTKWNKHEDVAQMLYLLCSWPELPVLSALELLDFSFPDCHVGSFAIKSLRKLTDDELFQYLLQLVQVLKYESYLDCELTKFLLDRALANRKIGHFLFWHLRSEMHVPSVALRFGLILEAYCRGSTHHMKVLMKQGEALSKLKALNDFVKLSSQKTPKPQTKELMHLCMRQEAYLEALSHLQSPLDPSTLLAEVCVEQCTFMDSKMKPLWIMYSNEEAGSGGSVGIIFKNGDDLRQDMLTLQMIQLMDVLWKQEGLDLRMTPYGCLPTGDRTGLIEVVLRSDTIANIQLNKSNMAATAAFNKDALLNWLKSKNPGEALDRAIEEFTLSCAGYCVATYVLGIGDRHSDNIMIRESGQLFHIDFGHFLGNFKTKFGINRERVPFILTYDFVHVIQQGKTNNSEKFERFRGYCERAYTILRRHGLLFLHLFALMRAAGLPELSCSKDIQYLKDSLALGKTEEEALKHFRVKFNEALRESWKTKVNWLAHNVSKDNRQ
T1 sequence (P27986 whole entry partner): as the sequence (P27986 whole entry partner) above

Regarding `CCn1c(-c2ccc(C(F)(F)F)cc2)nc2c(NC3CCc4ncn(C5CC5)c4C3)ncnc21` (single isomer, unassigned) [Compound 5-5, (S or R)-N-(1-cyclopropyl-4,5,6,7-tetrahydro-1H-benzimidazol-6-yl)-9-ethyl-8-[4-(trifluoromethyl)phenyl]-9H-purin-6-amine], the pIC50 in test [1] was 8.29. The “Selectivity versus PI3Kalpha” value in test [2] was greater than 10.
On to `CCn1c(C(F)F)nc2c(NC3CCc4ncn(C5CC5)c4C3)ncnc21` (single isomer, unassigned) [Compound 5-6, (S or R)-N-(1-cyclopropyl-4,5,6,7-tetrahydro-1H-benzimidazol-6-yl)-8-(difluoromethyl)-9-ethyl-9H-purin-6-amine], for which, in test [1], the pIC50 was 6.77. Further, in test [2], the “Selectivity versus PI3Kalpha” value is greater than 10.
In the same order, the values of `CCn1c(-c2cnc(C)nc2)nc2c(NC3CCc4nc(C)n(C5CC5)c4C3)ncnc21` (single isomer, unassigned) [Compound 5-7, (S or R)-N-(1-cyclopropyl-2-methyl-4,5,6,7-tetrahydro-1H-benzimidazol-6-yl)-9-ethyl-8-(2-methylpyrimidin-5-yl)-9H-purin-6-amine] are 7.72 and greater than 10.
Take `CCc1nc2c(n1C1CC1)CC(Nc1ncnc3c1nc(-c1cnc(C)nc1)n3CC)CC2` (single isomer, unassigned) [Compound 5-8, (S or R)-N-(1-cyclopropyl-2-ethyl-4,5,6,7-tetrahydro-1H-benzimidazol-6-yl)-9-ethyl-8-(2-methylpyrimidin-5-yl)-9H-purin-6-amine]: the pIC50 in test [1] is 7.68. Besides, the “Selectivity versus PI3Kalpha” value in test [2] is given as greater than 10.
For `CCn1c(C(=O)NCC(F)(F)F)nc2c(NC3CCc4ncn(C5CC5)c4C3)ncnc21` (single isomer, unassigned) [Compound 5-9, (S or R)-6-[(1-cyclopropyl-4,5,6,7-tetrahydro-1H-benzimidazol-6-yl)amino]-9-ethyl-N-(2,2,2-trifluoroethyl)-9H-purine-8-carboxamide], the pIC50 in test [1] is 7.29. Besides, the “Selectivity versus PI3Kalpha” value in test [2] was greater than 10.
`CCn1c(-c2cnc(C)nc2)nc2c(NC3CCc4nc(C(F)F)n(C5CC5)c4C3)ncnc21` (single isomer, unassigned) [Compound 5-10, (S or R)-N-[1-cyclopropyl-2-(difluoromethyl)-4,5,6,7-tetrahydro-1H-benzimidazol-6-yl]-9-ethyl-8-(2-methylpyrimidin-5-yl)-9H-purin-6-amine]: the pIC50 in test [1] was greater than 9.00. Also, the “Selectivity versus PI3Kalpha” value in test [2] was greater than 10.
`CCn1c(-c2cnc(C)nc2)nc2c(NC3CCc4nc(C(F)F)n(C5CC5)c4C3)ncnc21` (single isomer, unassigned) [Compound 5-11, (S or R)-N-[1-cyclopropyl-2-(difluoromethyl)-4,5,6,7-tetrahydro-1H-benzimidazol-6-yl]-9-ethyl-8-(2-methylpyrimidin-5-yl)-9H-purin-6-amine]: the pIC50 in test [1] was 7.40. Further, the “Selectivity versus PI3Kalpha” value in test [2] is recorded as greater than 10.
As to `CCn1c(-c2cnc(C)nc2)nc2c(NC3CCc4ncn([C@H]5C[C@@H](OC)C5)c4C3)ncnc21` (single isomer, unassigned) [Compound 5-13, (S or R)-9-ethyl-N-[1-(cis-3-methoxycyclobutyl)-4,5,6,7-tetrahydro-1H-benzimidazol-6-yl]-8-(2-methylpyrimidin-5-yl)-9H-purin-6-amine], the pIC50 in test [1] is 8.33. Also, the “Selectivity versus PI3Kalpha” value in test [2] was greater than 10.
As to `CCn1c(-c2cnc(C)nc2)nc2c(NC3CCc4ncn([C@H]5C[C@@H](OC)C5)c4C3)ncnc21` (single isomer, unassigned) [Compound 5-14, (S or R)-9-ethyl-N-[1-(cis-3-methoxycyclobutyl)-4,5,6,7-tetrahydro-1H-benzimidazol-6-yl]-8-(2-methylpyrimidin-5-yl)-9H-purin-6-amine], the pIC50 in test [1] was 6.64. Moreover, the “Selectivity versus PI3Kalpha” value in test [2] is recorded as greater than 10.
